Data taken from patent US7612104B2, “Bicyclic aryl-sulfonic acid [1,3,4]-thiadiazol-2-yl-amides, processes for their preparation, pharmaceutical compositions and methods for their use” (Sanofi-Aventis, priority 2005, dated 2009).

Biological target: T1, human PPARdelta (Homo sapiens, UniProt Q03181)
T1 construct: amino acids S139-Y441; expressed in transfected cells; host or cells: HEK cells, stably transfected (pcDNA3, CMV promoter)
T1 sequence (Q03181 139-441): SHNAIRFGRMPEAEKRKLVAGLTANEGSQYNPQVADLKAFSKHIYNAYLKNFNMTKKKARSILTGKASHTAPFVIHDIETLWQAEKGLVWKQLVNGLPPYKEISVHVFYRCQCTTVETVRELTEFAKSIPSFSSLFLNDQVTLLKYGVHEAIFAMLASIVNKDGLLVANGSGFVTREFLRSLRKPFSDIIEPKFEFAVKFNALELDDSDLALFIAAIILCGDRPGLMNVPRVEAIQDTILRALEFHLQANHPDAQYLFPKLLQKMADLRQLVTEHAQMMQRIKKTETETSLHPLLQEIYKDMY
Experiment: Cellular PPARdelta assay (stably transfected HEK reporter cell line, luciferase)
Format: cell-based
Conditions: GR-GAL4-humanPPARdelta-LBD
Description: The activity of PPARalpha agonists is determined in a 3-day assay which is described below:
The PPARalpha reporter cell line is cultivated to 80% confluence in DMEM (#41965-039, Invitrogen) which is mixed with the following additions: 10% cs-FCS (fetal calf serum; #SH-30068.03, Hyclone), 0.5 mg/ml zeocin (#R250-01, Invitrogen), 0.5 mg/ml G418 (#10131-027, Invitrogen), 1% penicillin-streptomycin solution (#15140-122, Invitrogen) and 2 mM L-glutamine (#25030-024, Invitrogen). The cultivation takes place in standard cell culture bottles (#353112, Becton Dickinson) in a cell culture incubator at 37° C. in the presence of 5% CO2. The 80%-confluent cells are washed once with 15 ml of PBS (#14190-094, Invitrogen), treated with 3 ml of trypsin solution (#25300-054, Invitrogen) at 37° C. for 2 min, taken up in 5 ml of the DMEM described and counted in a cell counter. After dilution to 500.000 cells/ml, 35,000 cells are seeded in each well of a 96 well microtiter plate with a clear plastic base (#3610, Corning Costar). The plates are incubated in the cell culture incubator at 37° C. and 5% CO2 for 24 h.
PPARalpha agonists to be tested are dissolved in DMSO in a concentration of 10 mM. This stock solution is diluted in DMEM (#41965-039, Invitrogen) which is mixed with 5% cs-FCS (#SH-30068.03, Hyclone), 2 mM L-glutamine (#25030-024, Invitrogen) and the previously described antibiotics (zeocin, G418, penicillin and streptomycin). Test substances are tested in 11 different concentrations in the range from 10 μM to 100 pM.
The medium of the PPARalpha reporter cell line seeded on day 1 is completely removed by aspiration, and the test substances diluted in medium are immediately added to the cells. The dilution and addition of the substances is carried out by a robot (Beckman FX). The final volume of the test substances diluted in medium is 100 μl per well of a 96 well microtiter plate. The DMSO concentration in the assay is less than 0.1% v/v in order to avoid cytotoxic effects of the solvent.
The assay plates are incubated in an incubator at 37° C. and 5% CO2 for 24 h.
The PPARalpha reporter cells treated with the test substances are removed from the incubator, and the medium is aspirated off. The cells are lyzed by pipetting 50 μl of Bright Glo reagent (from Promega) into each well of a 96 well microtiter plate. After incubation at room temperature in the dark for 10 minutes, the microtiter plates are measured in the luminometer (Trilux from Wallac). The measuring time for each well of a microtiter plate is 1 sec.
The raw data from the luminometer are transferred into a Microsoft Excel file. Dose-effect plots and EC50 values of PPAR agonists are calculated using the XL.Fit program as specified by the manufacturer (IDBS).
The potency of substances which bind to human PPARdelta and activate it in an agonistic manner is analyzed using a stably transfected HEK cell line (HEK=human embryo kidney) which is referred to here as PPARdelta reporter cell line. In analogy to the assay described for PPARalpha, the PPARdelta reporter cell line also contains two genetic elements, a luciferase reporter element (pdeltaM-GAL4-Luc-Zeo) and a PPARdelta fusion protein (GR-GAL4-humanPPARdelta-LBD) which mediates expression of the luciferase reporter element depending on a PPARdelta ligand. The stably and constitutively expressed fusion protein GR-GAL4-humanPPARdelta-LBD binds in the cell nucleus of the PPARdelta reporter cell line via the GAL4 protein portion to the GAL4 DNA binding motifs 5′-upstream of the luciferase reporter element which is stably integrated in the genome of the cell line. There is only little expression of the luciferase reporter gene in the absence of a PPARdelta ligand if fatty acid-depleted fetal calf serum (cs-FCS) is used in the assay. PPARdelta ligands bind and activate the PPARdelta fusion protein and thereby stimulate expression of the luciferase reporter gene. […]

| SMILES | EC50 [nM] |
| --- | --- |
| CCOc1cc(C(F)(F)F)ccc1C(=O)NC1Cc2ccc(S(=O)(=O)Nc3nnc(C(C)C)s3)cc2C1 (racemic) [Example 1, 2-Ethoxy-N-[5-(5-isopropyl-[1,3,4]thiadiazol-2-ylsulfamoyl)-indan-2-yl]-4-trifluoromethyl-benzamide] | 1 |
| CCOc1cc(C(F)(F)F)ccc1C(=O)NC1Cc2ccc(S(=O)(=O)Nc3nnc(C(C)C)s3)cc2C1 (single isomer, unassigned; enantiomer 1) [Example 1.1, 2-Ethoxy-N-[5-(5-isopropyl-[1,3,4]thiadiazol-2-ylsulfamoyl)-indan-2-yl]-4-trifluoromethyl-benzamide (Enantiomer 1)] | 1 |
| CCOc1cc(C(F)(F)F)ccc1C(=O)NC1Cc2ccc(S(=O)(=O)Nc3nnc(C(C)C)s3)cc2C1 (single isomer, unassigned; enantiomer 2) [Example 1.2, 2-Ethoxy-N-[5-(5-isopropyl-[1,3,4]thiadiazol-2-ylsulfamoyl)-indan-2-yl]-4-trifluoromethyl-benzamide (Enantiomer 2)] | 50 |
| CCOc1cc(C(F)(F)F)ccc1C(=O)N[C@H]1CCc2ccc(S(=O)(=O)Nc3nnc(C(C)C)s3)cc2C1 [Example 5, 2-Ethoxy-N-[(S)-7-(5-isopropyl-[1,3,4]thiadiazol-2-ylsulfamoyl)-1,2,3,4-tetrahydro-naphthalen-2-yl]-4-trifluoromethyl-benzamide] | 600 |
| CCOc1cc(C(F)(F)F)ccc1C(=O)N[C@@H]1CCc2ccc(S(=O)(=O)Nc3nnc(C(C)C)s3)cc2C1 [Example 6, 2-Ethoxi-N-[(R)-7-(5-isopropyl-[1,3,4]thiadiazol-2-ylsulfamoyl)-1,2,3,4-tetrahydro-naphthalene-2-yl]-4-trifluoromethyl-benzamide] | 600 |
| CCOc1cc(C(F)(F)F)sc1C(=O)NC1Cc2ccc(S(=O)(=O)Nc3nnc(C(C)C)s3)cc2C1 (stereo not drawn) [Example 11, 3-Ethoxy-5-trifluoromethyl-thiophene-2-carboxylic acid [5-(5-isopropyl-[1,3,4]thiadiazol-2-ylsulfamoyl)-indan-2-yl]-amide] | 1 |
